Assay results: patent US10907208B2, “Method for screening agents promoting skin barrier function and method for evaluating skin barrier function taking epidermal serine racemase and/or D-serine level as indicator” (Shiseido Company, Ltd, priority 2014, dated 2021)

Key:
Assay type in all cases: cell-based, human
[1] = test system: fillagrin (FLG) gene; experiment: Real-time PCR gene expression in three-dimension culture of keratinocytes (3D skin model), fillagrin; conditions: D-Ser 100 μM, 7 days, corrected by MRPL19, FIG. 5
Method: (§1) Human normal keratinocytes were seeded on polycarbonate insert (Millipore) having 12 mm of diameter and 0.4 μm of bore diameter. Then, Human normal keratinocytes were cultured for three days under 5% CO2 atmosphere at 37° C. by adding Cnt-Prime, Epithelial Culture Medium (CELLnTEC Advanced Cell Systems AG) inside and outside of the insert, followed by being cultured for 24 hours by substituting with Cnt-prime 3D Barrier medium (CELLnTEC Advanced Cell Systems AG). […]
(§2) Total RNA extracted by means of Trizol reagent (Invitrogen) was subjected to NanoDrop 1000 Spectrophotometer (Thermo Fisher Scientific) to determine RNA concentration, and then was converted to cDNA by using SuperScriptVIL0 (Invitrogen). Relative expression amount of genes of fillagrin (FLG), cornuline (CRNN) and repetin (RPTN), and mitochondrial ribosome protein L19 (MRPL19) which was used as an internal control gene was determined. […]
(§3) Relative expression amount of the target gene of each group was determined by means of correction using the expression amount of mitochondrial ribosome protein L19 gene (MRPL19) as an internal control (FIGS. 5-7). […]

[2] = test system: repetin (RPTN) gene; experiment: Real-time PCR gene expression in three-dimension culture of keratinocytes (3D skin model), repetin; conditions: D-Ser 100 μM, 7 days, corrected by MRPL19, FIG. 7
Method: as §1, §2, §3

[3] = test system: cornuline (CRNN) gene; experiment: Real-time PCR gene expression in three-dimension culture of keratinocytes (3D skin model), cornuline; conditions: D-Ser 100 μM, 7 days, corrected by MRPL19, FIG. 6
Method: as §1, §2, §3

N[C@H](CO)C(=O)O [D-serine]
expression level of fillagrin gene [1]: increases
expression level of fillagrin gene ([1]; listed as D-Ser): increased
expression level of repetin gene [2]: increases
expression level of repetin gene ([2]; listed as D-Ser): increased
expression level of cornuline gene [3]: increases
expression level of cornuline gene ([3]; listed as D-Ser): increased
